Where “and” joins values, the source holds several entries; their conditions need not be identical. Identical values can stand only once.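 How tested: cells in 96-well plates exposed to compound for 48 hours at five concentrations. GI50 = concentration required for 50% inhibition of growth.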 Calls of active or inactive are those of the source. Cut-off read from the data, not from the text of the source: active = GI50 up to about 1.1 µM and inactive = higher.
Assays:
Assay in all cases: inhibition of tumour cell growth, NCI panel, 48 h
IGROV-1 = system: IGROV-1
OVCAR-4 = system: OVCAR-4
LOX IMVI = system: LOX IMVI
MDA-N = system: MDA-N
SN12C = system: SN12C
NCI-H226 = system: NCI-H226
A549 = system: A549
RPMI-8226 = system: RPMI-8226
T47D = system: T47D
OVCAR-8 = system: OVCAR-8
U-251 = system: U-251
HT-29 = system: HT-29
HCT-15 = system: HCT-15
786-0 = system: 786-0
NCI-H23 = system: NCI-H23
SK-MEL-2 = system: SK-MEL-2
HL-60 = system: HL-60
SF-268 = system: SF-268
UACC-62 = system: UACC-62
OVCAR-3 = system: OVCAR-3
PC-3 = system: PC-3
SK-MEL-5 = system: SK-MEL-5
M14 = system: M14
HCC 2998 = system: HCC 2998
SW-620 = system: SW-620
NCI-H522 = system: NCI-H522
DU-145 = system: DU-145
SR = system: SR
SNB-19 = system: SNB-19
BT-549 = system: BT-549
HCT-116 = system: HCT-116
MDA-MB-231 = system: MDA-MB-231
TK-10 = system: TK-10
Malme-3M = system: Malme-3M
OVCAR-5 = system: OVCAR-5
SNB-75 = system: SNB-75
K562 = system: K562
UO-31 = system: UO-31
ACHN = system: ACHN
UACC-257 = system: UACC-257
A498 = system: A498
HOP-62 = system: HOP-62
CCRF-CEM = system: CCRF-CEM
MDA-MB-435 = system: MDA-MB-435
SK-MEL-28 = system: SK-MEL-28
MOLT-4 = system: MOLT-4
NCI-H460 = system: NCI-H460
MCF7 = system: MCF7
KM12 = system: KM12
NCI/ADR-RES = system: NCI/ADR-RES
HOP-92 = system: HOP-92
CAKI-1 = system: CAKI-1
COLO 205 = system: COLO 205
SF-539 = system: SF-539
SF-295 = system: SF-295
RXF 393 = system: RXF 393
Hs-578T = system: Hs-578T
EKVX = system: EKVX

Structure (SMILES): Cc1cc(Cl)ccc1/N=N/C(=O)NNc1ccc(Cl)cc1C
- GI50 (IGROV-1): 6.62 µM (inactive)
- GI50 (OVCAR-4): 17.7 µM (inactive)
- GI50 (LOX IMVI): 16.9 µM (inactive)
- GI50 (MDA-N): 16.3 µM (inactive)
- GI50 (SN12C): 15.4 µM (inactive)
- GI50 (NCI-H226): 16.4 µM (inactive)
- GI50 (A549): 12.9 µM (inactive)
- GI50 (RPMI-8226): 22.2 µM (inactive)
- GI50 (T47D): 5.87 µM (inactive)
- GI50 (OVCAR-8): 13 µM (inactive)
- GI50 (U-251): 16.4 µM (inactive)
- GI50 (HT-29): 21.3 µM (inactive)
- GI50 (HCT-15): 12.2 µM
- GI50 (786-0): 16.3 µM (inactive)
- GI50 (NCI-H23): 15.5 µM (inactive)
- GI50 (SK-MEL-2): 14.1 µM (inactive)
- GI50 (HL-60): 20.3 µM (inactive)
- GI50 (SF-268): 16.4 µM (inactive)
- GI50 (UACC-62): 9.04 µM (inactive)
- GI50 (OVCAR-3): 17.2 µM (inactive)
- GI50 (PC-3): 10.4 µM (inactive)
- GI50 (SK-MEL-5): 13.9 µM (inactive)
- GI50 (M14): 16.9 µM (inactive)
- GI50 (HCC 2998): 11.5 µM (inactive)
- GI50 (SW-620): 15.9 µM (inactive)
- GI50 (NCI-H522): 20.3 µM (inactive)
- GI50 (DU-145): 10.7 µM (inactive)
- GI50 (SR): 22.2 µM (inactive)
- GI50 (SNB-19): 17.6 µM (inactive)
- GI50 (BT-549): 15.6 µM (inactive)
- GI50 (HCT-116): 13.4 µM (inactive)
- GI50 (MDA-MB-231): 11.7 µM (inactive)
- GI50 (TK-10): 18.2 µM (inactive)
- GI50 (Malme-3M): 21 µM (inactive)
- GI50 (OVCAR-5): 15.8 µM (inactive)
- GI50 (SNB-75): 15.6 µM (inactive)
- GI50 (K562): 22 µM (inactive)
- GI50 (UO-31): 13 µM (inactive)
- GI50 (ACHN): 16.1 µM (inactive)
- GI50 (UACC-257): 17.1 µM (inactive)
- GI50 (A498): 9.06 µM (inactive)
- GI50 (HOP-62): 11.5 µM (inactive)
- GI50 (CCRF-CEM): 21.1 µM (inactive)
- GI50 (MDA-MB-435): 20.7 µM (inactive)
- GI50 (SK-MEL-28): 16.1 µM (inactive)
- GI50 (MOLT-4): 14 µM (inactive)
- GI50 (NCI-H460): 14.4 µM (inactive)

Structure (SMILES): CC1C[C@]2(C)C(NCCN)=Nc3ccccc3[C@@H]2N(C)c2ccccc21 (stereo partly specified)
- GI50 (IGROV-1): 14.1 µM (inactive)
- GI50 (OVCAR-4): 16.3 µM (inactive)
- GI50 (LOX IMVI): 12.7 µM (inactive)
- GI50 (MCF7): 8.18 µM (inactive)
- GI50 (MDA-N): 13.9 µM (inactive)
- GI50 (KM12): 16 µM (inactive)
- GI50 (SN12C): 14.4 µM (inactive)
- GI50 (NCI-H226): 14.7 µM (inactive)
- GI50 (A549): 16.4 µM (inactive)
- GI50 (NCI/ADR-RES): 26.4 µM (inactive)
- GI50 (RPMI-8226): 14.1 µM (inactive)
- GI50 (HOP-92): 2.3 µM (inactive)
- GI50 (T47D): 15.1 µM (inactive)
- GI50 (OVCAR-8): 14.7 µM (inactive)
- GI50 (HT-29): 3.36 µM (inactive)
- GI50 (HCT-15): 17.3 µM
- GI50 (786-0): 12.2 µM (inactive)
- GI50 (NCI-H23): 16.7 µM (inactive)
- GI50 (SK-MEL-2): 17.2 µM (inactive)
- GI50 (HL-60): 16.2 µM (inactive)
- GI50 (SF-268): 13.9 µM (inactive)
- GI50 (UACC-62): 13.6 µM (inactive)
- GI50 (CAKI-1): 15.5 µM (inactive)
- GI50 (OVCAR-3): 11.1 µM (inactive)
- GI50 (PC-3): 12.9 µM (inactive)
- GI50 (SK-MEL-5): 13.7 µM (inactive)
- GI50 (M14): 1.9 µM (inactive)
- GI50 (HCC 2998): 2.9 µM (inactive)
- GI50 (COLO 205): 2.23 µM (inactive)
- GI50 (SF-539): 12.4 µM (inactive)
- GI50 (SW-620): 17.5 µM (inactive)
- GI50 (DU-145): 15.1 µM (inactive)
- GI50 (SR): 2.81 µM (inactive)
- GI50 (SF-295): 17.9 µM (inactive)
- GI50 (SNB-19): 13.4 µM (inactive)
- GI50 (RXF 393): 8.85 µM (inactive)
- GI50 (HCT-116): 8.32 µM (inactive)
- GI50 (MDA-MB-231): 8.57 µM (inactive)
- GI50 (TK-10): 9.29 µM (inactive)
- GI50 (Malme-3M): 3.72 µM (inactive)
- GI50 (OVCAR-5): 14 µM (inactive)
- GI50 (SNB-75): 3.45 µM (inactive)
- GI50 (K562): 11.9 µM (inactive)
- GI50 (UO-31): 11.2 µM (inactive)
- GI50 (ACHN): 16.3 µM (inactive)
- GI50 (UACC-257): 5.04 µM (inactive)
- GI50 (A498): 16.5 µM (inactive)
- GI50 (HOP-62): 16.1 µM (inactive)
- GI50 (CCRF-CEM): 15.9 µM (inactive)
- GI50 (Hs-578T): 18.3 µM (inactive)
- GI50 (MDA-MB-435): 10.7 µM (inactive)
- GI50 (SK-MEL-28): 11.2 µM (inactive)
- GI50 (MOLT-4): 27.8 µM (inactive)
- GI50 (EKVX): 16.8 µM (inactive)
- GI50 (NCI-H460): 11.1 µM (inactive)

Structure (SMILES): CC(C)(C)OC(=O)C1C(=O)NC(=O)CC1CC(OCc1ccccc1)C(OCc1ccccc1)C(COCc1ccccc1)OCc1ccccc1 (stereo unspecified)
- GI50 (OVCAR-4): 31.6 µM (inactive) and 21.1 µM (inactive)
- GI50 (HOP-92): 17.5 µM (inactive) and 13 µM (inactive)
- GI50 (T47D): 29.3 µM (inactive)
- GI50 (HT-29): 4.76 µM (inactive) and 8.24 µM (inactive)
- GI50 (OVCAR-3): 24.8 µM (inactive) and 31.3 µM (inactive)
- GI50 (HCC 2998): 30.8 µM (inactive) and 54.2 µM (inactive)
- GI50 (DU-145): > 100 µM (inactive) and 54 µM (inactive)
- GI50 (SF-295): 54.8 µM (inactive) and 28.3 µM (inactive)
- GI50 (BT-549): 24.9 µM (inactive) and 14.6 µM (inactive)
- GI50 (TK-10): > 100 µM (inactive)
- GI50 (OVCAR-5): 35.6 µM (inactive) and 67.8 µM (inactive)
- GI50 (SNB-75): 15 µM (inactive) and 11.1 µM (inactive)
- GI50 (A498): > 100 µM (inactive)
- GI50 (Hs-578T): 12 µM (inactive) and 23.8 µM (inactive)

Reference: ChEMBL document CHEMBL1201862, “PubChem BioAssay data set” (2004)
